The values that follow come from patent publication US20240317732A1, “A NEW MOLECULAR SCAFFOLD FOR TARGETING HRPN13” (THE UNITED STATES OF AMERICA AS REPRESENTED BY THE …, priority 2021, published 2024).

Data set [1] has as its target T1, hRpn13 Pru (Homo sapiens (Human), UniProt Q16186). Kind of data set: Differential scanning fluorimetry, tryptophan quenching at 350 nm. In kind it is binding. The settings on record: 1 μM hRpn13 Pru, 20° C. From the text:
We conducted in silico docking screens of commercial libraries containing in total 63 million compounds by using the hRpn13 Pru:hRpn2 structure and hRpn2-binding site of hRpn13 as a binding pocket. Twenty-two potential lead compounds were selected for validation by biophysical assays. hRpn13 W108 is partially exposed when free but buried by hRpn2, enabling tryptophan quenching by differential scanning fluorimetry (DSF at λ350) for assaying binding and this approach was used to screen for compound binding to this site. 20 μM compound (separately for twenty compounds) was incubated with 1 μM hRpn13 Pru and fluorescence emission at 350 nm measured. […] The compounds were separately added at 10-fold molar excess to 20 μM ^15N-labeled hRpn13 Pru and binding assessed at 25° C. by 2D NMR for samples dissolved in NMR buffer (20 mM sodium phosphate, 50 mM NaCl, 2 mM DTT, 10% DMSO-d6 (deuterated DMSO), pH 6.5). […] XL5 addition caused hRpn13 signals to shift from free state positions to an observable bound state whereas spectral changes were not induced by the other compounds tested. […]
DSF experiments were performed on a PrometheusNT.48 instrument (NanoTemper Technologies, Germany) at 20° C. […] Each sample was loaded into three high sensitivity capillaries (NanoTemper, cat #PR-C006) and the emission of intrinsic tryptophan fluorescence at 350 nm was monitored.
For orientation: Differential scanning fluorimetry follows unfolding on heating by fluorescence.

Data set [2] concerns the target T1, hRpn13 Pru. Kind of data set: Isothermal titration calorimetry (ITC) of hRpn13 Pru binding. The following applies: 25° C. How it is done: ITC experiments were performed at 25° C. on a MicroCal iTC200 system (Malvern, PA, USA). hRpn13 Pru, XL5, XL5 derivative, or RA190 were prepared in buffer C. One aliquot of 0.5 μL followed by 17 or 18 aliquots of 2.1 μL of 200 μM hRpn13 Pru was injected at 750 r.p.m. into a calorimeter cell (volume […]) that contained 20 μM XL5, XL5 derivative, or RA190. Blank experiments were performed by replacing XL5, XL5 derivative, or RA190 with buffer in the cell and the resulting data subtracted from the experimental data during analyses. The integrated interaction heat values were normalized as a function of protein concentration and the data were fit with MicroCal Origin 7.0-based software implementing the “One Set of Sites” model to yield binding affinity Ka (1/Kd), stoichiometry, and other thermodynamic parameters. Dissociation constants (Kd) as determined by ITC as well as relative binding affinities of selected compounds are presented n Table 1, while additional information on named compounds including structures, synthesis, and characterization is presented in Examples 3-9: […]
(Isothermal titration calorimetry measures the heat released or taken up as one component is titrated into another.)

A further data set concerns RPMI 8226 cells. Kind of data set: MTT cell metabolism / cell viability assay in RPMI 8226. Type of data set: cell-based. The settings on record: RPMI 8226, 48 hours, up to 40 μM. Here is the method:
Since previous hRpn13-targeting molecules induce apoptosis in multiple myeloma and colon cancer cells we tested whether XL5 restricts the RPMI 8226 multiple myeloma and HCT116 colon cancer cell lines by measuring metabolism with an MTT (3-(4,5-dimethylthiazol-2-yl)-2,5-diphenyltetrazolium bromide) assay. Experiments were also conducted in parallel with a HCT116 colon cancer cell line in which the exon encoding hRpn13 C88 is deleted, named trRpn13; this cell line expresses a truncated hRpn13 protein with a defective Pru and inability to bind the proteasome28. RPMI 8226 and WT (wild-type) or trRpn13 HCT116 cells seeded at 8,000 and 4,000 cells per well were treated with varying concentrations of XL5 extending to 40 μM and compared to cells incubated with equivalent amounts of DMSO vehicle control.
HCT116 WT or trRpn13 cells were seeded at 4,000 cells/well whereas RPMI 8226 cells were seeded at 8,000 cells/well with RPMI 1640 medium (no phenol red, Thermo Fisher Scientific 11835030) containing 2% fetal bovine serum in 96-well plates. Cells were treated with 0.4% DMSO (as a control) and this concentration was maintained with XL5, XL5-PROTACs XL5-VHL, XL5-VHL-2, XL5-CRBN, or XL5-IAP, and E3 ligands VHL-Ac, thalidomide (Selleckchem, catalog NO. S1193), or IAP-Bz at 10 μM, 20 μM, 30 μM or 40 μM concentration. After 48 hours, 0.35 mg/mL MTT was added for 4 hours of incubation. Stop solution (40% DMF, 10% SDS (W/V), 25 mM HCl, 2.5% acetic acid in H2O) was added to the cells and incubated overnight. Absorbance at 570 nm was measured by using CLARIOstar (BMG LABTECH).

The nature of data set [3]: Reactivity in mouse serum by LC-MS. The following applies: 0.2 μM, room temperature, 24-hour time period. Type of data set: in vitro ADME. Here is the method: To test for covalent interaction, an hRpn13 Pru sample was incubated with 10-fold molar excess XL5 or DMSO (as a vehicle control) and subjected to liquid chromatography-mass spectrometry (LC-MS). […] To test for general reactivity of XL5 towards exposed cysteines, 40 μM XL5 was incubated at 4° C. for two hours with 2 mM reduced L-glutathione serving as representative of a non-specific interactor with exposed cysteines. XL5-ligated glutathione was detected at only 2% abundance (FIG. 2B). Under identical conditions, 40 μM RA190 reacted with 2 mM reduced L-glutathione to yield products with one or two molecules ligated at 14% or 30% abundance, respectively. We also tested XL5 reactivity by incubating it at 0.2 μM with mouse serum (BioIVT) and monitoring the effect by LC-MS over a 24-hour time period to find only 6% reduction in the unligated compound.
To check for reactivity of XL5 in mouse serum, 0.2 μM XL5 was mixed with mouse serum (BioIVT) and aliquots of the spiked mixture left at room temperature for 0, 4, 8 and 24 hours. For each time point, six samples were extracted using 75% acetonitrile and 0.075% formic acid. The supernatant was transferred to polypropylene injection vials for LC-MS analysis. […]

Data set [4] has as its target T1, hRpn13 Pru. Kind of data set: 2D NMR (1H,15N HSQC) binding to 15N-labeled hRpn13 Pru. The following applies: assessed by ITC and NMR. From the text:
We conducted in silico docking screens of commercial libraries containing in total 63 million compounds by using the hRpn13 Pru:hRpn2 structure and hRpn2-binding site of hRpn13 as a binding pocket. Twenty-two potential lead compounds were selected for validation by biophysical assays. hRpn13 W108 is partially exposed when free but buried by hRpn2, enabling tryptophan quenching by differential scanning fluorimetry (DSF at λ350) for assaying binding and this approach was used to screen for compound binding to this site. 20 μM compound (separately for twenty compounds) was incubated with 1 μM hRpn13 Pru and fluorescence emission at 350 nm measured. […] The compounds were separately added at 10-fold molar excess to 20 μM ^15N-labeled hRpn13 Pru and binding assessed at 25° C. by 2D NMR for samples dissolved in NMR buffer (20 mM sodium phosphate, 50 mM NaCl, 2 mM DTT, 10% DMSO-d6 (deuterated DMSO), pH 6.5). […]
For screening by ^1H, ^15N HSQC experiments, small molecule dissolved in DMSO-d6 was added to 20 μM or 250 μM ^15N-labeled hRpn13 Pru at a molar excess of 2-fold (for XL5) or 10-fold (for all compounds tested) in NMR buffer (20 mM sodium phosphate, 50 mM NaCl, 2 mM DTT, 10% DMSO-d6, pH 6.5). […] Three ^13C-half-filtered NOESY experiments were recorded with a 100 ms mixing time on asymmetrically labeled samples dissolved in NMR buffer. […]

The test system of the next data set is hRpn13 / hRpn13-Pru. Kind of data set: Immunoblot of hRpn13 species in RPMI 8226 cell lysates. In kind it is cell-based, human. The following applies: RPMI 8226 WT, 100 nM, 24 hours. Here is the method: HCT116 WT, HCT116 trRpn13, RPMI 8226 or 293T cells were collected and washed with PBS followed by lysing in 1% Triton-TBS lysis buffer (50 mM Tris-HCl, pH 7.5, 150 mM NaCl, 1 mM PMSF) supplemented with protease inhibitor cocktail (Roche). Total protein concentration was determined by bicinchoninic acid (Pierce). Protein lysates were prepared in 1χ LDS (ThermoFisher, NP0007) buffer with 100 mM DTT and heating at 70° C. for 10 min, loaded onto 4-12% Bis-Tris polyacrylamide gels (Life Technologies), subjected to SDS-PAGE and transferred to Invitrolon polyvinylidene difluoride membranes (Life Technologies). The membranes were blocked in Tris-buffered saline with 0.1% Tween-20 (TBST) supplemented with 5% skim milk, incubated with primary antibody, washed in TBST, incubated with secondary antibody and washed extensively in TBST. Pierce™ ECL Western Blotting Substrate (32106; Thermo Fisher Scientific) or Amersham™ ECL™ Primer Western Blotting Detection Reagent (cytiva) was used for antibody signal detection.
To test whether the XL5-PROTACs cause ubiquitination and degradation of hRpn13, lysates from RPMI 8226 (FIG. 5C) cells treated with 40 μM XL5 orXL5-PROTAC compared to DMSO vehicle control were immunoprobed for hRpn13 and β-actin (loading control).
A general note: A western blot detects proteins with antibodies after separation by electrophoresis.

T1 sequence (Q16186 1-150): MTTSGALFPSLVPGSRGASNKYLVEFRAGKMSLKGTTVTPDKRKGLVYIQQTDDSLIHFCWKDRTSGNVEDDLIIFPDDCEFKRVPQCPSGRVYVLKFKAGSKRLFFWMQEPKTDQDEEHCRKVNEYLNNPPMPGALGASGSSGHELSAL

As to `Cl.N[C@@H](Cc1ccccc1)C(=O)N1C/C(=C/c2ccc(Cl)c(Cl)c2)C(=O)/C(=C\c2ccc(Cl)c(Cl)c2)C1` [RA190, reference compound], the “tryptophan fluorescence emission quenching at 350 nm” value at hRpn13 Pru [1] is reported as “titration-dependent reduction in λ350 signal”. In addition, the “binding detected by ITC” value on hRpn13 Pru [2] is on record as “did not detect binding”. Take `CC(=O)N[C@H](C(=O)N1C[C@H](O)C[C@H]1C(=O)N[C@@H](C)c1ccc(-c2scnc2C)cc1)C(C)(C)C` [VHL-Ac, reference compound]: the “metabolic activity / cell viability (MTT)” value with RPMI 8226 cells is reported as “did not affect metabolic activity”. Consider `Cc1ccc(C(=O)Nc2cccc(/C=C(\C#N)C(=O)Nc3ccccc3C(=O)O)c2)cc1` [XL5], for which, in data set [3], the “reduction in the unligated compound in mouse serum” value was 6%. `CNc1ccc(C(=O)Nc2cccc(/C=C(\C#N)C(=O)Nc3ccccc3C(=O)O)c2)cc1` [XL24]: binding on hRpn13 Pru [2] (200 μM hRpn13 Pru into 20 μM compound, buffer C) was put at a Kd of 1.74 ± 0.35 µM. Moreover, at hRpn13 Pru [4], the “change of affinity for hRpn13 Pru relative to XL5” value was “little effect”. Regarding `CC(C)C[C@H](NC(=O)[C@H](CCc1ccccc1)NC(=O)CN1CCOCC1)C(=O)N[C@@H](Cc1ccccc1)C(=O)N[C@@H](CC(C)C)C(=O)[C@@]1(C)CO1` [carfilzomib, reference compound], the “hRpn13-Pru level after proteasome inhibitor” value with hRpn13 / hRpn13-Pru is “reduced levels of hRpn13-Pru”. Regarding `O=C1CCC(N2C(=O)c3ccccc3C2=O)C(=O)N1` (centres unmarked) [thalidomide, reference compound], in the data set on RPMI 8226 cells, the “metabolic activity / cell viability (MTT)” value is recorded as “did not affect metabolic activity”.
